Experimental data from patent US7560468B2, “Substituted 1,4,8-triazaspiro[4,5]decan-2-one compounds” (Gruenenthal GmbH, priority 2004, dated 2009).

Each compound was assayed on batrachotoxin (BTX) binding site of the sodium channel (assay: Affinity to the batrachotoxin (BTX) binding site of the sodium channel). Conditions: rat cerebrocortex synaptosomes, [3H]-batrachotoxinin A20 α-benzoate 10 nM; test concentration not given.

| Compound | BTX Inhibition |
| --- | --- |
| CSCCC1NC2(CCN(C(=S)NCc3ccc(F)cc3)CC2)N(C)C1=O (centres unmarked) [Example 134, 1-Methyl-3-(2-methylsulfanylethyl)-2-oxo-1,4,8-triazaspiro[4,5]decan-8-thiocarboxylic acid 4-fluorobenzylamide] | 50 |
| CSCCC1NC2(CCN(C(=S)NCc3cc(F)ccc3F)CC2)N(C)C1=O (centres unmarked) [Example 138, 1-Methyl-3-(2-methylsulfanylethyl)-2-oxo-1,4,8-triazaspiro[4,5]decan-8-thiocarboxylic acid (2,5-difluorobenzol)amide] | 34 |
| CC(=O)c1cccc(NC(=S)N2CCC3(CC2)NC(CC(C)C)C(=O)N3Cc2ccccc2C#N)c1 (centres unmarked) [Example 141, 1-(2-Cyanobenzyl)-3-isobutyl-2-oxo-1,4,8-triazaspiro[4,5]decan-8-thiocarboxylic acid (3-acetylbenzol)amide] | 50 |
| CSCCC1NC2(CCN(C(=S)NCc3ccc(Cl)cc3)CC2)N(Cc2cccc(C#N)c2)C1=O (centres unmarked) [Example 185, 1-(3-Cyanobenzyl)-3-(2-methylsulfanylethyl)-2-oxo-1,4,8-triazaspiro[4,5]decan-8-thiocarboxylic acid 4-chlorobenzylamide] | 72 |
| C#CCN1C(=O)C(CC(C)C)NC12CCN(C(=S)Nc1c(Cl)cccc1Cl)CC2 (centres unmarked) [Example 190, 3-Isobutyl-2-oxo-1-prop-2-ynyl-1,4,8-triazaspiro[4,5]decan-8-thiocarboxylic acid (2,6-dichlorobenzol)amide] | 53 |
| COC(=O)c1ccc(CN2C(=O)C(C(C)C)NC23CCN(C(=S)NCc2ccc(Cl)cc2)CC3)cc1 (centres unmarked) [Example 191, Methyl 4-[8-(4-chlorobenzylthiocarbamoyl)-3-isopropyl-2-oxo-1,4,8-triazaspiro[4,5]dec-1-ylmethyl]-benzoate] | 74 |
| CSCCC1NC2(CCN(C(=S)NC(C)c3ccccc3)CC2)N(Cc2ccc(F)cc2)C1=O (centres unmarked) [Example 196, 1-(4-Fluorobenzyl)-3-(2-methylsulfanylethyl)-2-oxo-1,4,8-triazaspiro[4,5]decan-8-thiocarboxylic acid (1-benzol-ethyl)amide] | 70 |
| O=C1C(Cc2ccccc2)NC2(CCN(C(=S)NCc3ccc(Cl)cc3)CC2)N1Cc1ccccc1F (centres unmarked) [Example 197, 3-Benzyl-1-(2-fluorobenzyl)-2-oxo-1,4,8-triazaspiro[4,5]decan-8-thiocarboxylic acid 4-chlorobenzylamide] | 77 |
| CC(C)C1NC2(CCN(C(=S)NCc3ccccc3)CC2)N(Cc2ccccc2)C1=O (centres unmarked) [Example 199, 1-Benzyl-3-isopropyl-2-oxo-1,4,8-triazaspiro[4,5]decan-8-thiocarboxylic acid benzylamide] | 44 |
| C=CCN1C(=O)C(C(C)C)NC12CCN(C(=O)Nc1cc(F)ccc1F)CC2 (centres unmarked) [Example 209, 1-Allyl-3-isopropyl-2-oxo-1,4,8-triazaspiro[4,5]decan-8-carboxylic acid (2,5-difluorobenzol)amide] | 31 |
| CC(C)CC1NC2(CCN(C(=O)Nc3cc(F)ccc3F)CC2)N(Cc2ccccc2C#N)C1=O (centres unmarked) [Example 218, 1-(2-Cyanobenzyl)-3-isobutyl-2-oxo-1,4,8-triazaspiro[4,5]decan-8-carboxylic acid (2,5-difluorobenzol)amide] | 40 |
| CSCCC1NC2(CCN(C(=O)NCc3ccc(Cl)c(Cl)c3)CC2)N(Cc2ccc(F)cc2)C1=O (centres unmarked) [Example 228, 1-(4-Fluorobenzyl)-3-(2-methylsulfanylethyl)-2-oxo-1,4,8-triazaspiro[4,5]decan-8-carboxylic acid 3,4-dichlorobenzylamide] | 87 |
| COC(=O)c1ccc(CN2C(=O)C(C(C)C)NC23CCN(C(=O)NCc2ccc(Cl)c(Cl)c2)CC3)cc1 (centres unmarked) [Example 232, Methyl 4-[8-(3,4-dichlorobenzylcarbamoyl)-3-isopropyl-2-oxo-1,4,8-triazaspiro[4,5]dec-1-ylmethyl]-benzoate] | 55 |
| Methyl 4-[8-(2,6-dichlorobenzolthiocarbamoyl)-3-isopropyl-2-oxo-1,4,8-triazaspiro[4,5]dec-1-ylmethyl]-benzoate [Example 135] | 38 |

Each compound was assayed against T1, 5-HT transporter (Rattus norvegicus, UniProt P31652) (assay: Inhibition of 5-HT uptake in synaptosomes). Conditions: rat, 1 μM.
T1 construct: from tissue; host or cells: rat brain synaptosomes (marrow/medulla and pons), P2 fraction
Format: biochemical

T1 sequence (P31652 whole entry): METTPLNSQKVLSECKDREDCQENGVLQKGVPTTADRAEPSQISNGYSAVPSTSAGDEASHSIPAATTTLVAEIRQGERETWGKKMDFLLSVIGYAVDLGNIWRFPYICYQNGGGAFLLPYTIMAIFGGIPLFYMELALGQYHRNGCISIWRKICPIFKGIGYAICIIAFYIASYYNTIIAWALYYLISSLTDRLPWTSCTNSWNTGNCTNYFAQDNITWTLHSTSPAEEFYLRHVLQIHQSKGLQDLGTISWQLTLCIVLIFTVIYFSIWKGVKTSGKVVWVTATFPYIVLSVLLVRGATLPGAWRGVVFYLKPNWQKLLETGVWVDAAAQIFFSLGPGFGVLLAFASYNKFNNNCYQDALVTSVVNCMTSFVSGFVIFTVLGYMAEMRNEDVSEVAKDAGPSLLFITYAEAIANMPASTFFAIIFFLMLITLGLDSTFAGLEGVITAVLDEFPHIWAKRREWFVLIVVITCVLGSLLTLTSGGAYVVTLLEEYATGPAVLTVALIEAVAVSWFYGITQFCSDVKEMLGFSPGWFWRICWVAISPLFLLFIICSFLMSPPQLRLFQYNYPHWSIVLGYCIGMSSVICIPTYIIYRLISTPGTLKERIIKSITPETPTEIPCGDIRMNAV

| Compound | Uptake_5-HT, rat, 1 μM, % inhibition [%] |
| --- | --- |
| CC(C)C1NC2(CCN(S(=O)(=O)c3ccc([N+](=O)[O-])cc3)CC2)NC1=O (centres unmarked) [Example 1, 3-Isopropyl-8-(4-nitrobenzolsulfonyl)-1,4,8-triazaspiro[4,5]decan-2-one] | 55 |
| CCCCN1C(=O)C(CCSC)NC12CCN(S(=O)(=O)c1ccc(C(C)=O)cc1)CC2 (centres unmarked) [Example 13, 8-(4-Acetylbenzolsulfonyl)-1-butyl-3-(2-methylsulfanylethyl)-1,4,8-triazaspiro[4,5]decan-2-one] | 56 |
| CCCCN1C(=O)C(CCSC)NC12CCN(S(=O)(=O)c1ccc(OC)c(OC)c1)CC2 (centres unmarked) [Example 30, 1-Butyl-8-(3,4-dimethoxy-benzolsulfonyl)-3-(2-methylsulfanylethyl)-1,4,8-triazaspiro[4,5]decan-2-one] | 53 |
| CN1C(=O)C(Cc2ccccc2)NC12CCN(S(=O)(=O)c1cccc(Cl)c1)CC2 (centres unmarked) [Example 40, 3-Benzyl-8-(3-chlorobenzolsulfonyl)-1-methyl-1,4,8-triazaspiro[4,5]decan-2-one] | 57 |
| CCC(C)(C)c1ccc(S(=O)(=O)N2CCC3(CC2)NC(CCSC)C(=O)N3Cc2ccccc2)cc1 (centres unmarked) [Example 41, 1-Benzyl-8-[4-(1,1-dimethylpropyl)benzolesulfonyl]-3-(2-methylsulfanylethyl)-1,4,8-triazaspiro[4,5]decan-2-one] | 56 |
| CC(C)C1NC2(CCN(S(=O)(=O)c3ccc([N+](=O)[O-])cc3)CC2)N(Cc2cccc(C#N)c2)C1=O (centres unmarked) [Example 52, 3-[3-Isopropyl-8-(4-nitrobenzolsulfonyl)-2-oxo-1,4,8-triazaspiro[4,5]dec-1-ylmethyl]-benzonitrile] | 53 |

Same assay, conditions: read-out: 5-HT uptake: Km; characteristic data of the 5-HT transporter

| Compound | Km [µM] |
| --- | --- |
| NCCc1c[nH]c2ccc(O)cc12 [Example 5-HT, serotonin, reference compound] | 0.084 ± 0.011 |

Same assay, conditions: read-out: Uptake_5-HT, rat, 1 μM, % inhibition

| Compound | inhibition at 1 µM [%] |
| --- | --- |
| CCCCN1C(=O)C(CCSC)NC12CCN(S(=O)(=O)c1ccc(Cl)s1)CC2 (centres unmarked) [Example 12, 1-Butyl-8-(5-chlorothiophen-2-sulfonyl)-3-(2-methylsulfanylethyl)-1,4,8-triazaspiro[4,5]decan-2-one] | 58 |
| CCCCN1C(=O)C(C(C)C)NC12CCN(S(=O)(=O)c1ccccc1C(=O)OC)CC2 (centres unmarked) [Example 15, Methyl 2-(1-butyl-3-isopropyl-2-oxo-1,4,8-triazaspiro[4,5]decan-8-sulfonyl)benzoate] | 44 |
| CCS(=O)(=O)N1CCC2(CC1)NC(CCSC)C(=O)N2Cc1ccccc1 (centres unmarked) [Example 32, 1-Benzyl-8-ethanesulfonyl-3-(2-methylsulfanylethyl)-1,4,8-triazaspiro[4,5]decan-2-one] | 64 |
| COC(=O)c1ccccc1S(=O)(=O)N1CCC2(CC1)NC(CCSC)C(=O)N2Cc1ccccc1C#N (centres unmarked) [Example 38, Methyl 2-[1-(2-cyanobenzyl)-3-(2-methylsulfanylethyl)-2-oxo-1,4,8-triazaspiro[4,5]decan-8-sulfonyl]-benzoate] | 40 |
| CN(C)S(=O)(=O)N1CCC2(CC1)NCC(=O)N2Cc1ccccc1F [Example 55, 1-(2-Fluorobenzyl)-2-oxo-1,4,8-triazaspiro[4,5]decan-8-sulfonic acid dimethylamide] | 57 |
